# Data: ChEMBL document CHEMBL4229544, “Design, synthesis and antibacterial properties of pyrimido[4,5-b]indol-8-amine inhibitors of DNA gyrase” (Bioorg Med Chem Lett, 2018)
# Experiments:
# Escherichia coli = assay: Antibacterial activity against Escherichia coli ATCC 25922; type: functional
# Staphylococcus aureus = assay: Antibacterial activity against Staphylococcus aureus ATCC 29213; type: functional
# [1] = tested on: Mycolicibacterium smegmatis; assay: Antibacterial activity against Mycobacterium smegmatis ATCC 19420; type: functional
# Enterococcus faecalis [2] = assay: Antibacterial activity against Enterococcus faecalis ATCC 29212; type: functional
# [3] = tested on: Mycobacterium tuberculosis; assay: Antibacterial activity against Mycobacterium tuberculosis H37Rv; type: functional
# HepG2 = assay: Cytotoxicity against human HepG2 cells after 24 hrs by CellTiter-Glo assay; type: cell-based; conditions: HepG2, 24 h
# Haemophilus influenzae [4] = assay: Antibacterial activity against Haemophilus influenzae ATCC 49247 by agar dilution method; type: functional
# Streptococcus pneumoniae [5] = assay: Antibacterial activity against Streptococcus pneumoniae ATCC 49619 by agar dilution method; type: functional
# Enterococcus faecalis [6] = assay: Antibacterial activity against Enterococcus faecalis ATCC 29212 by agar dilution method; type: functional
# [7] = tested on: Staphylococcus epidermidis; assay: Antibacterial activity against Staphylococcus epidermidis ATCC 12228 by agar dilution method; type: functional
# [8] = tested on: Mycobacterium tuberculosis; assay: Antibacterial activity against Mycobacterium tuberculosis H37Rv measured after 5 days by resazurin-dye based microplate assay; type: functional; conditions: 120 h
# Pseudomonas aeruginosa [9] = assay: Antibacterial activity against Pseudomonas aeruginosa ATCC 27853 by agar dilution method; type: functional
# [10] = tested on: Staphylococcus epidermidis; assay: Antibacterial activity against Staphylococcus epidermidis ATCC 12228; type: functional
# Homo sapiens = species on record: Homo sapiens; assay: Inhibition of human topoisomerase-2-mediated decatenation at 100 uM relative to control
# Acinetobacter baumannii = assay: Antibacterial activity against Acinetobacter baumannii NCTC 13420; type: functional
# Pseudomonas aeruginosa [11] = assay: Antibacterial activity against Pseudomonas aeruginosa ATCC 27853; type: functional
# Haemophilus influenzae [12] = assay: Antibacterial activity against Haemophilus influenzae ATCC 49247; type: functional
# [13] = molecular target: T1, DNA gyrase subunit A/DNA gyrase subunit B (Mycobacterium tuberculosis (strain ATCC 25618 / H37Rv), UniProt P9WG45+P9WG47); assay: Inhibition of Mycobacterium tuberculosis DNA gyrase activity; type: protein-complex assay
# [14] = molecular target: T1, DNA gyrase subunit A/DNA gyrase subunit B; assay: Inhibition of Mycobacterium tuberculosis DNA gyrase ATPase activity; type: protein-complex assay
# Streptococcus pneumoniae [15] = assay: Antibacterial activity against Streptococcus pneumoniae ATCC 49619; type: functional
# T1 sequence (P9WG45 whole entry): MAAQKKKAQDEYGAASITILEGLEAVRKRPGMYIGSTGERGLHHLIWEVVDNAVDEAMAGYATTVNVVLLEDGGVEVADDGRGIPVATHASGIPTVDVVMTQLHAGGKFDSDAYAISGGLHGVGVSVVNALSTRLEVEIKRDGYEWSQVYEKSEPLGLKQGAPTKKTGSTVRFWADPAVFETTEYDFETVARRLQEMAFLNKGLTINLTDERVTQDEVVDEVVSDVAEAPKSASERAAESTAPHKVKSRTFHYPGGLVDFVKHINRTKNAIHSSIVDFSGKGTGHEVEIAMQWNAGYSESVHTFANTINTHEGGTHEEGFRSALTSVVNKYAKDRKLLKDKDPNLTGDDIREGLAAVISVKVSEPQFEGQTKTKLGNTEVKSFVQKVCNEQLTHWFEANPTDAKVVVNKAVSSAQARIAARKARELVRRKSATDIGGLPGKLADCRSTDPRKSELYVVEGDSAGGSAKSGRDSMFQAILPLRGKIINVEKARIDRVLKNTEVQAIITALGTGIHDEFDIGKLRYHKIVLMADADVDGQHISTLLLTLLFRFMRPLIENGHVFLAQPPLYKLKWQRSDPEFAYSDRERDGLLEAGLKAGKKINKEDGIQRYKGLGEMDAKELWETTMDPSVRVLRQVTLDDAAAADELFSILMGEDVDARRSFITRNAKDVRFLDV
# T1 sequence (P9WG47 whole entry): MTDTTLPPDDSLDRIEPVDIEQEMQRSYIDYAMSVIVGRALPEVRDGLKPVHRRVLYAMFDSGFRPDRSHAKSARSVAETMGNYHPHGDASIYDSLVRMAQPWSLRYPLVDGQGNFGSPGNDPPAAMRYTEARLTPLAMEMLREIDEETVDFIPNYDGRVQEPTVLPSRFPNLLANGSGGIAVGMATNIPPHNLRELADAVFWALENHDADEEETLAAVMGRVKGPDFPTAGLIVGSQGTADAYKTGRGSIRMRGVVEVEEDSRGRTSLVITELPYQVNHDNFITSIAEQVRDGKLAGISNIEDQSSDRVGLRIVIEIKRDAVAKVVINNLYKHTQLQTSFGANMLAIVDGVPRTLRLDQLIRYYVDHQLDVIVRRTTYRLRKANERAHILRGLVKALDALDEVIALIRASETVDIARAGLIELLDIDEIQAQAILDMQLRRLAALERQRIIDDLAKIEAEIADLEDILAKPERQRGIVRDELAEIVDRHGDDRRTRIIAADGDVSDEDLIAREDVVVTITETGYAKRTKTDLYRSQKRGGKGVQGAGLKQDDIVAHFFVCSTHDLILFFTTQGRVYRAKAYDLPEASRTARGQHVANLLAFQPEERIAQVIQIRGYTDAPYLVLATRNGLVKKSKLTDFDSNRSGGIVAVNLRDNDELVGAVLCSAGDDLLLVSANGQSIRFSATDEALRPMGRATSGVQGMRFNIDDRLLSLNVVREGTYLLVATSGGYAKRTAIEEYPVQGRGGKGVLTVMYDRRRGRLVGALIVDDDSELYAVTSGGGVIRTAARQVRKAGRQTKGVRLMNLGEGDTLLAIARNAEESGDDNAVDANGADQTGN
Structure (SMILES),MIC (Escherichia coli) [µg/mL],MIC (Staphylococcus aureus) [µg/mL],MIC [1] [µg/mL],MIC (Enterococcus faecalis [2]) [µg/mL],MIC [3] [µg/mL],other results
CNc1cc(F)cc2c1[nH]c1nc(CNC(=O)c3cnco3)nc(N3CCC(CN)C3)c12 (centres undefined),4,4,0.06,0.12,0.03,–
CNc1cc(F)cc2c1[nH]c1nc(CNC(=O)c3ocnc3C)nc(N3CCC(N(C)C)C3)c12 (centres undefined),2,1,0.06,0.03,0.06,–
CO[C@@H]1[C@@H](OC(N)=O)[C@@H](O)[C@H](Oc2ccc3c(O)c(NC(=O)c4ccc(O)c(CC=C(C)C)c4)c(=O)oc3c2C)OC1(C)C [NOVOBIOCIN],> 64,0.06,1,–,–,IC50 (HepG2): > 32 µg/mL; MIC (Haemophilus influenzae [4]): 0.5 µg/mL; MIC (Streptococcus pneumoniae [5]): 0.5 µg/mL; MIC (Enterococcus faecalis [6]): 4 µg/mL; MIC [7]: 0.06 µg/mL; MIC [8]: 4 µg/mL; MIC (Pseudomonas aeruginosa [9]): > 64 µg/mL
CNc1cc(F)cc2c1[nH]c1nc(CNC(=O)c3cccnc3)nc(N3CCC(N)C3)c12 (centres undefined),8,32,–,0.25,–,–
CNc1cc(F)cc2c1[nH]c1nc(CNC(=O)c3cnco3)nc(N3CCC(N)C3)c12 (centres undefined),4,8,0.25,1,0.25,MIC [10]: 1 µg/mL; inhibition (Homo sapiens): 21.2%; MIC (Acinetobacter baumannii): 8 µg/mL; IC50 (HepG2): > 16 µg/mL; MIC (Pseudomonas aeruginosa [11]): 32 µg/mL; MIC (Haemophilus influenzae [12]): 1 µg/mL; IC50 [13]: 10 nM; IC50 [14]: 59 nM; MIC (Streptococcus pneumoniae [15]): 1 µg/mL
CNc1cc(F)cc2c1[nH]c1nc(CNC(=O)c3cocn3)nc(N3CCC(N)C3)c12 (centres undefined),128,8,0.12,0.06,–,MIC [10]: 1 µg/mL; inhibition (Homo sapiens): 5.8%; MIC (Acinetobacter baumannii): 16 µg/mL; IC50 (HepG2): 10.8 µg/mL; MIC (Pseudomonas aeruginosa [11]): 128 µg/mL; MIC (Haemophilus influenzae [12]): 1 µg/mL; IC50 [13]: 5 nM; IC50 [14]: 25 nM; MIC (Streptococcus pneumoniae [15]): 0.12 µg/mL
CNc1cc(F)cc2c1[nH]c1nc(CN)nc(N3CCC(N)C3)c12 (centres undefined),8,8,–,8,–,–
CNc1cc(F)cc2c1[nH]c1nc(CNC(=O)c3ocnc3C)nc(N3CCC(CN)C3)c12 (centres undefined),8,8,0.03,0.5,0.015,–
CNc1cc(F)cc2c1[nH]c1nc(CNC(=O)c3cnco3)nc(N3CCC(N(C)C)C3)c12 (centres undefined),0.25,0.5,0.06,0.015,0.06,MIC [10]: 0.12 µg/mL; MIC (Acinetobacter baumannii): 1 µg/mL; IC50 (HepG2): > 16 µg/mL; MIC (Pseudomonas aeruginosa [11]): > 64 µg/mL; MIC (Haemophilus influenzae [12]): 4 µg/mL; MIC (Streptococcus pneumoniae [15]): 0.12 µg/mL
COc1c(N2C[C@@H]3CCCN[C@@H]3C2)c(F)cc2c(=O)c(C(=O)O)cn(C3CC3)c12 [MOXIFLOXACIN],–,–,0.03,–,–,–
NNC(=O)c1ccncc1 [ISONIAZID],–,–,4,–,–,–
CNc1cc(F)cc2c1[nH]c1nc(CNC(=O)c3cnc(C)o3)nc(N3CCC(CN)C3)c12 (centres undefined),4,8,0.12,0.25,0.015,–
CO[C@H]1/C=C/O[C@@]2(C)Oc3c(C)c(O)c4c(O)c(c(/C=N/N5CCN(C)CC5)c(O)c4c3C2=O)NC(=O)/C(C)=C\C=C\[C@H](C)[C@H](O)[C@@H](C)[C@@H](O)[C@@H](C)[C@H](OC(C)=O)[C@@H]1C [RIFAMPIN],–,–,16,–,–,–
CNc1cc(F)cc2c1[nH]c1nc(CNC(=O)c3cccc(C(=O)OC)n3)nc(N3CCC(CN)C3)c12 (centres undefined),32,8,0.06,1,–,–
CNc1cc(F)cc2c1[nH]c1nc(CNC(=O)c3cnc(C)o3)nc(N3CCC(N(C)C)C3)c12 (centres undefined),1,1,0.002,0.015,–,–
CNc1cc(F)cc2c1[nH]c1nc(CNC(=O)c3cnco3)nc(N3CCC(NC)C3)c12 (centres undefined),4,8,0.5,0.5,0.03,MIC [10]: 2 µg/mL; MIC (Acinetobacter baumannii): > 64 µg/mL; IC50 (HepG2): > 32 µg/mL; MIC (Pseudomonas aeruginosa [11]): > 64 µg/mL; MIC (Haemophilus influenzae [12]): 4 µg/mL; MIC (Streptococcus pneumoniae [15]): 2 µg/mL
CNc1cc(F)cc2c1[nH]c1nc(CNC(=O)c3cccnn3)nc(N3CCC(N)C3)c12 (centres undefined),4,8,–,0.12,–,–
CNc1cc(F)cc2c1[nH]c1nc(CNC(=O)c3cocn3)nc(N3CCC(NC)C3)c12 (centres undefined),16,16,0.5,0.25,0.12,–
CNc1cc(F)cc2c1[nH]c1nc(CNC(=O)c3ocnc3C)nc(N3CCC(NC)C3)c12 (centres undefined),4,4,0.06,0.25,0.03,–
CNc1cc(F)cc2c1[nH]c1nc(CNC(=O)c3ccc4cc[nH]c4n3)nc(N3CCC(N(C)C)C3)c12 (centres undefined),4,1,0.25,0.5,0.25,–
CNc1cc(F)cc2c1[nH]c1nc(CNC(=O)c3ccco3)nc(N3CCC(N(C)C)C3)c12 (centres undefined),0.5,0.25,0.06,0.12,0.03,–
